The values that follow come from patent US8034822B2, “Glucokinase activators” (Takeda San Diego, Inc., priority 2006, dated 2011).

Bounds are passed on as bounds.

The target in the assay is T1, glucokinase (GK) (Homo sapiens, UniProt P35557).
T1 construct: I.D. No. 1 corresponds to residues 12-465 of glucokinase; made in house; host or cells: E. coli DH10b-T1r, pFLAG-CTC plasmid
T1 sequence (P35557 with tags, fused parts or gaps isoform P35557-2): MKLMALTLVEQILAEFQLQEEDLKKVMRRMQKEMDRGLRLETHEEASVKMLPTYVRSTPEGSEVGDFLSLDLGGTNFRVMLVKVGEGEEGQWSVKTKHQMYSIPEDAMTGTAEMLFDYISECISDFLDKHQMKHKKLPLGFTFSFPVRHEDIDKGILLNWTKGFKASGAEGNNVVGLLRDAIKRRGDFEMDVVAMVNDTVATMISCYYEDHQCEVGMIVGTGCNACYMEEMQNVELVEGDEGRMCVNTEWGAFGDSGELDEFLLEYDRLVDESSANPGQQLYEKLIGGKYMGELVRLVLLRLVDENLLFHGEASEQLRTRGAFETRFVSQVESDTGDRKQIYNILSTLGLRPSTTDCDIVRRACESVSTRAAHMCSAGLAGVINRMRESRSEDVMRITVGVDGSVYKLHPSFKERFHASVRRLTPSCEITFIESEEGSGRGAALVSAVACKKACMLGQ
Kind of assay: enzymatic glucokinase activity assay (ATP consumption, KinaseGlo luminescence). The format is biochemical. The following applies: Against GK; Kact = concentration giving 50% of maximal increase in GK activity; 5 μM ATP, 5 mM Glucose, 60 min room temperature; values given as bins; read-out: pKact. From the text:
The activity of compounds as glucokinase activators may be assayed in vitro, in vivo or in a cell line. Provided below is an enzymatic glucokinase activity assay.
Purified glucokinase may be obtained as follows. DNA encoding residues 12-465 of the full-length sequence of the human enzyme may be amplified by PCR and cloned into the HindIII and EcoRI sites of pFLAG-CTC (Sigma). SEQ. I.D. No. 1 corresponds to residues 12-465 of glucokinase.
The expression of recombinant glucokinase protein may be carried out by transformation and growth of DH10b-T1r E. coli cells incorporating the (pFLAG-CTC) plasmid in LB media. Protein expression can be induced in this system by the addition of IPTG to the culture medium.
Recombinant protein may be isolated from cellular extracts by passage over Sepharose Q Fast Flow resin (Pharmacia). This partially purified GK extract may then be further purified by a second passage over Poros HQ10 (Applied Biosystems). The purity of GK may be determined on denaturing SDS-PAGE gel. Purified GK may then be concentrated to a final concentration of 20.0 mg/ml. After flash freezing in liquid nitrogen, the proteins can be stored at −78° C. in a buffer containing 25 mM TRIS-HCl pH 7.6, 50 mM NaCl, and 0.5 mM TCEP.
The activation properties of compounds for GK may be determined using a black 384-well-plate format under the following reaction conditions: 25 mM Hepes pH 7.2, 25 mM NaCl, 10 mM MgCl2, 0.01% Brij35, 1 mM DTT, 5 μM ATP, 5 mM Glucose 2% DMSO. The amount of ATP consumed may be determined quantitatively by addition of equal volume of luciferase reagent (luciferase+beetle luciferin—KinaseGlo Luminescent Kinase Assay kit from Promega). The luminescence intensity may be measured by using the Analyst HT from LJL Biosystems.
The assay reaction may be initiated as follows: 4 μl of substrate mixture (12.5 μM ATP and 12.5 mM Glucose) was added to each well of the plate, followed by the addition of 2 μl of activator (2 fold serial dilutions for 11 data points for each activator) containing 10% DMSO. 4 μL of 1.25 nM GK solution may be added to initiate the reaction. The reaction mixture may then be incubated at room temperature for 60 min, and quenched and developed by addition of 10 μL of luciferase reagent. Luminescence intensities of the resulting reaction mixtures may be measured after a 10 min incubation at room temperature. The luminescence intensity may be measured by using the Analyst HT from LJL Biosystems.
pKact and % ACTmax values may be calculated by non-linear curve fitting of the compound concentrations and luminescence intensities to a standard inhibition/activation equation.
(In general: Kinase-Glo reads ATP consumption through a luciferase reaction.)
Consider `COc1ccc2ncn(C(CC3CCCCC3)C(=O)Nc3ccc(C(N)=O)cn3)c(=O)c2c1` (stereo not shown) [Compound 167, 6-(3-cyclohexyl-2-(6-methoxy-4-oxoquinazolin-3(4H)-yl)propanamido)nicotinamide], for which the EC50 lay within 501 to 794 nM.
Consider `CCS(=O)(=O)c1ccc2c(=O)n(C(CC3CCCCC3)C(=O)Nc3ccc(Cl)cn3)cnc2c1` (stereo not shown) [Compound 72, N-(5-Chloro-pyridin-2-yl)-3-cyclohexyl-2-(7-ethanesulfonyl-4-oxo-4H-quinazolin-3-yl)-propionamide], for which the EC50 lay in the range of 501 to 794 nM.
On to `Cn1c(=O)n(C(CC2CCCCC2)C(=O)Nc2nccs2)c(=O)c2cc(Cl)ccc21` (stereo not shown) [Compound 39, 2-(6-chloro-1-methyl-2,4-dioxo-1,2-dihydroquinazolin-3(4H)-yl)-3-cyclohexyl-N-(thiazol-2-yl)propanamide], for which the EC50 was not below 2000 nM.
For the compound `CCOC(=O)CCc1ccc(NC(=O)C(CC2CCCCC2)n2cnc3cc(S(C)(=O)=O)ccc3c2=O)nc1` (stereo not shown) [Compound 76, 3-{6-[3-Cyclohexyl-2-(7-methanesulfonyl-4-oxo-4H-quinazolin-3-yl)-propionylamino]-pyridin-3-yl}-propionic acid ethyl ester], the EC50 is not below 2000 nM.
For `CS(=O)(=O)c1ccc2c(=O)n(C(CC3CCCCC3)C(=O)Nc3ccc(C(=O)O)cn3)c(=O)[nH]c2c1` (stereo not shown) [Compound 64, 6-[3-Cyclohexyl-2-(7-methanesulfonyl-2,4-dioxo-1,4-dihydro-2H-quinazolin-3-yl)-propionylamino]-nicotinic acid], the EC50 was not below 2000 nM.
As for `CS(=O)(=O)c1ccc2ncn(C(CC3CCCCC3)C(=O)Nc3ccc(Cl)cn3)c(=O)c2c1` (stereo not shown) [Compound 79, N-(5-Chloro-pyridin-2-yl)-3-cyclohexyl-2-(6-methanesulfonyl-4-oxo-4H-quinazolin-3-yl)-propionamide], the EC50 was in the range of 501 to 794 nM.
Under `CS(=O)(=O)c1ccc2ncn([C@@H](CC3CCCCC3)C(=O)Nc3ccc(C(N)=O)cn3)c(=O)c2c1` [Compound 93, 6-[3-Cyclohexyl-2-(6-methanesulfonyl-4-oxo-4H-quinazolin-3-yl)-propionylamino]-nicotinamide] stands 501 to 794 nM; under `O=C(NC1CC1)c1ccc2c(=O)n(C(CC3CCCCC3)C(=O)Nc3ncc(Cl)s3)cnc2c1` (stereo not shown) [Compound 170, 3-(1-(5-chlorothiazol-2-ylamino)-3-cyclohexyl-1-oxopropan-2-yl)-N-cyclopropyl-4-oxo-3,4-dihydroquinazoline-7-carboxamide], not above 398 nM.
For the compound `COC(=O)c1ccc(NC(=O)[C@H](CC2CCCCC2)n2cnc3c(C(F)(F)F)cccc3c2=O)nc1` [Compound 210, (S)-methyl 6-(3-cyclohexyl-2-(4-oxo-8-(trifluoromethyl)quinazolin-3(4H)-yl)propanamido)nicotinate], the EC50 was in the range of 1000 to 1580 nM.
Under `CNC(=O)c1ccc2c(=O)n(C(CC3CCCCC3)C(=O)Nc3ncc(Cl)s3)cnc2c1` (stereo not shown) [Compound 175, 3-(1-(5-chlorothiazol-2-ylamino)-3-cyclohexyl-1-oxopropan-2-yl)-N-methyl-4-oxo-3,4-dihydroquinazoline-7-carboxamide] stands not above 398 nM; under `O=C(Nc1ncc(Cl)s1)C(CC1CCCCC1)n1cnc2ccc(F)cc2c1=O` (stereo not shown) [Compound 50, N-(5-Chloro-thiazol-2-yl)-3-cyclohexyl-2-(6-fluoro-4-oxo-4H-quinazolin-3-yl)-propionamide], not below 2000 nM.
Regarding `Cc1ccc(NC(=O)C(CC2CCCCC2)n2cnc3c(cnn3C)c2=O)nc1` (stereo not shown) [Compound 110, 3-Cyclohexyl-2-(1-methyl-4-oxo-1H-pyrazolo[3,4-d]pyrimidin-5(4H)-yl)-N-(5-methylpyridin-2-yl)propanamide], the EC50 was not below 2000 nM.
`O=C(Nc1ccccn1)C(CC1CCCCC1)n1cnc2ccc(F)cc2c1=O` (stereo not shown) [Compound 36, 3-cyclohexyl-2-(6-fluoro-4-oxoquinazolin-3(4H)-yl)-N-(pyridin-2-yl)propanamide]: the EC50 is not below 2000 nM.
With `O=C(Nc1ccc(F)cn1)C(CC1CCCCC1)n1cnc2cc(S(=O)(=O)C3CC3)ccc2c1=O` (stereo not shown) [Compound 74, 3-Cyclohexyl-2-(7-cyclopropanesulfonyl-4-oxo-4H-quinazolin-3-yl)-N-(5-fluoro-pyridin-2-yl)-propionamide], the EC50 lay within 1000 to 1580 nM.
Regarding `CS(=O)(=O)c1csc2c(=O)n(C(CC3CCCCC3)C(=O)Nc3ccc(Cl)cn3)cnc12` (stereo not shown) [Compound 184, N-(5-chloropyridin-2-yl)-3-cyclohexyl-2-(7-(methylsulfonyl)-4-oxothieno[3,2-d]pyrimidin-3(4H)-yl)propanamide], the EC50 fell in the range of 1000 to 1580 nM.
As for `CCS(=O)(=O)c1ccc2c(=O)n(C(CC3CCCCC3)C(=O)Nc3ccc(C(N)=O)cn3)cnc2c1` (stereo not shown) [Compound 81, 6-[3-Cyclohexyl-2-(7-ethanesulfonyl-4-oxo-4H-quinazolin-3-yl)-propionylamino]-nicotinamide], the EC50 was not above 398 nM.
For `O=C(Nc1nccs1)C(CC1CCCCC1)n1cnc2c(Cl)cccc2c1=O` (stereo not shown) [Compound 139, 2-(8-chloro-4-oxoquinazolin-3(4H)-yl)-3-cyclohexyl-N-(thiazol-2-yl)propanamide], the EC50 was not below 2000 nM.
With `O=C(Nc1ccc(Cl)cn1)C(CC1CCCCC1)n1cnc2cc(S(=O)(=O)C3CC3)ccc2c1=O` (stereo not shown) [Compound 75, N-(5-Chloro-pyridin-2-yl)-3-cyclohexyl-2-(7-cyclopropanesulfonyl-4-oxo-4H-quinazolin-3-yl)-propionamide], the EC50 lay within 501 to 794 nM.
The result for `COC(=O)c1ccc(NC(=O)C(CC2CCCCC2)n2cnc3cc(S(=O)(=O)CC4CC4)ccc3c2=O)nc1` (stereo not shown) [Compound 90, 6-[3-Cyclohexyl-2-(7-cyclopropylmethanesulfonyl-4-oxo-4H-quinazolin-3-yl)-propionylamino]-nicotinic acid methyl ester] reads 501 to 794 nM.
